This data set can be described thus: Determination of carbodiimide half-life by IR spectroscopy (reaction with acetic acid in xylene). Format: physicochemical. Particulars: for Half-life: time for 50% of the carbodiimide compound to react with acetic acid in xylene at 23±2°C, carbodiimide absorption at 2100-2200 cm^-1; for Remarks: observation during reaction with acetic acid in xylene at 23±2°C. The method, then: In particular, the carbodiimides of the present invention have slower reactivity than those described in US2005/0255081A1. The reactivity of carbodiimide compounds can be expressed as the half-life, i.e. in this case the time it takes for 50% of the carbodiimide compound to react with the carboxylic acid.
The carbodiimide compound preferably has relatively slow reactivity. Reactivity is measured by way of the half-life of the carbodiimide, which is defined as the time taken for 50% of the carbodiimide compound to react with a carboxylic acid.
Solutions of the carbodiimide compounds and acetic acid in xylene are prepared. A carbodiimide solution and the acetic acid solution are mixed and the reaction between the carbodiimide compound and acetic acid at 23±2°C is monitored by following the carbodiimide absorption at 2100-2200 cm^-1 in an zinc selenide cell. The reaction is followed until approximately 50% of the carbodiimide compound has reacted.

With `Cc1ccccc1N=C=Nc1ccccc1C` [1,3-Di-o-methylphenylcarbodiimide], the Half-life was 3 h. On the same count and under the same terms, next, `CC(C)c1cccc(C(C)C)c1N=C=Nc1c(C(C)C)cccc1C(C)C` [Bis(2,6-diisopropylphenyl) carbodiimide]: 30 h.

In the case of `CC(C)N=C=NC(C)C` [1,3-Diisopropylcarbodiimide], the Remarks result is on record as “Precipitation of urea products” and the Half-life worked out at 0.75 h. On the same counts, the results for `C(=NC1CCCCC1)=NC1CCCCC1` [1,3-Dicyclohexylcarbodiimide] are “Precipitation of urea products” and 0.25 h. On to `C[Si](C)(C)N=C=N[Si](C)(C)C` [1,3-bis(trimethylsilyl)carbodiimide], for which the Remarks result is listed as “No reaction”. `Cc1ccc(N=C=Nc2ccc(C)cc2)cc1` [1,3-Di-p-tolylcarbodiimide]: the Half-life is on record as 2 h.

(Values after patent EP2725073B1, “Antifouling coating composition” (Jotun A/S, priority 2012, dated 2014).)
